Reference: patent EP0385381A2, “Inhibitor of restenosis after percutaneous transluminal coronary angioplasty” (DAIICHI PHARMACEUTICAL CO., LTD., priority 1989, dated 1990)
Where a name gives a salt, the structure may show the parent alone.

Test system: post-PTCA restenosis
Assay: Clinical study of inhibition of post-PTCA restenosis, evaluated from coronary angiographic findings
Type: in vivo, patients with angina pectoris
Procedure: In 18 patients with angina pectoris in whom elective PTCA was indicated, 6-(1-imidazolylmethyl)- 5,6,7,8-tetrahydronaphthalene-2-carboxylic acid hydrochloride hemihydrate (hereinafter, referred to as Compound A) was administered orally in a dose of 200 mg three times a day after each meal (600 mg/day) pre-angioplasty, beginning about three days before PTCA, and post angioplasty for 3 months (treated group). Coronary angiography was performed before, immediately after, and 3 months after PTCA. Based on the coronary angiographic findings, inhibition of restenosis of the right coronary artery, left anterior descending artery and left circumflex artery was evaluated, by site of lesion, according to the criteria in Table 1 shown below. Further, based on the results of the evaluation, overall efficacy evaluation by individual patient was made.
In regard to luminal diameter: • 1. Excellent post-angioplasty course: unchanged or expanded • 2. Good post-angioplasty course: a decrease in luminal diameter of less than 50% • 3. Poor post-angioplasty course: a decrease in luminal diameter of 50% or more and less than 100% • 4. Worse post-angioplasty course: a decrease in luminal diameter of 100% or progression of stenosis as compared with pre-PTCA condition
As controls (control group), placebo was similarly administered to 15 patients with angina pectoris in whom effective PTCA was indicated and coronary angiography was performed before and after PTCA.
In both of the treated and control groups, calcium antagonists, viz. nifedipine and diltiazem, antianginal drugs, viz. ISDN and nicorandil, and antiarteriosclerotic agents, viz. elastase, etc. were used concurrently as necessary as shown in Table 2 below. However, there was no significant difference (χ² test) between the two groups in the use of concomitant drugs, as in other patient characteristics.

[1] = Left Anterior Descending Artery, number of lesions rated (of 9), 600 mg/day oral, 3 months after PTCA
[2] = Left Circumflex Artery, number of lesions rated (of 11), 600 mg/day oral, 3 months after PTCA
[3] = Right Coronary Artery, number of lesions rated (of 8), 600 mg/day oral, 3 months after PTCA
[4] = Total, number of lesions rated (of 28), Wilcoxon test P=0.100 vs control group
[5] = number of patients rated (of 18), Wilcoxon test P=0.010 vs control group

SMILES: O=C(O)c1ccc2c(c1)CCC(Cn1ccnc1)C2 (stereo not drawn) [Compound A, 6-(1-imidazolylmethyl)-5,6,7,8-tetrahydronaphthalene-2-carboxylic acid hydrochloride hemihydrate]
- Overall Efficacy Evaluation, by Individual Patient: Excellent, Cumulative % (18 patients): (38.9%)
- Overall Efficacy Evaluation, by Individual Patient: Good, Cumulative % (18 patients, Excellent plus Good): (77.8%)
- Evaluation of coronary angiographic findings by site of lesion: Excellent [1]: 4
- Evaluation of coronary angiographic findings by site of lesion: Good [1]: 3
- Evaluation of coronary angiographic findings by site of lesion: Poor [1]: 1
- Evaluation of coronary angiographic findings by site of lesion: Worse [1]: 1
- Evaluation of coronary angiographic findings by site of lesion: Excellent [2]: 2
- Evaluation of coronary angiographic findings by site of lesion: Good [2]: 7
- Evaluation of coronary angiographic findings by site of lesion: Poor [2]: 1
- Evaluation of coronary angiographic findings by site of lesion: Worse [2]: 1
- Evaluation of coronary angiographic findings by site of lesion: Excellent [3]: 3
- Evaluation of coronary angiographic findings by site of lesion: Good [3]: 4
- Evaluation of coronary angiographic findings by site of lesion: Poor [3]: 0
- Evaluation of coronary angiographic findings by site of lesion: Worse [3]: 1
- Evaluation of coronary angiographic findings by site of lesion: Excellent, Cumulative % (Total of 28 lesions): (32.1%)
- Evaluation of coronary angiographic findings by site of lesion: Good, Cumulative % (Total of 28 lesions, Excellent plus Good): (83.1%)
- Evaluation of coronary angiographic findings by site of lesion: Excellent [4]: 9
- Evaluation of coronary angiographic findings by site of lesion: Good [4]: 14
- Evaluation of coronary angiographic findings by site of lesion: Poor [4]: 2
- Evaluation of coronary angiographic findings by site of lesion: Worse [4]: 3
- Overall Efficacy Evaluation, by Individual Patient: Excellent (number of patients rated (of 18), Wilcoxon test P=0.010, Fisher test (excellent ratings) P=0.009 vs control group): 7
- Overall Efficacy Evaluation, by Individual Patient: Good [5]: 7
- Overall Efficacy Evaluation, by Individual Patient: Poor [5]: 3
- Overall Efficacy Evaluation, by Individual Patient: Worse [5]: 1
